Literature values, collected in patent US4163799A, “Psychostimulant compounds” (Union Chimique Continentale U.C.C., priority 1975, dated 1979).

Settings: caffeine, comparison in words, no test described; cited from earlier work

In the case of `Cn1c(=O)c2c(ncn2C)n(C)c1=O` [caffeine], the antihypnotic effect is given as “does”.
